System: recombinant NL4-3 virus (Renilla luciferase in nef, Gag P373S; NLRluc) in MT-2 cells
Experiment: whole plant or invertebrate
Type: cell-based, HIV
Conditions: Renilla, NL43
Summary of the method: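 Read-out is Renilla luciferase, measured immediately after adding a premixed lysis/Dual Luciferase reagent. The reporter virus, NL4-3 with luciferase replacing part of nef plus Gag P373S, infected MT-2 cells for 4–5 days under serially diluted inhibitor.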

Row | Structure (SMILES) | EC50
1 | C=C(C)[C@@H]1CC[C@]2(NCCN3CCS(=O)(=O)CC3)CC[C@]3(C)[C@H](CC[C@@H]4[C@@]5(C)CC=C(c6ccc(C(=O)O[C@H]7O[C@H](C(=O)O)[C@@H](O)[C@H](O)[C@H]7O)cc6)C(C)(C)[C@@H]5CC[C@]43C)[C@@H]12 [Example B7B, (2S,3S,4S,5R,6R)-6-((4-((1R,3aS,5aR,5bR,7aR,11aS,11bR,13aR,13bR)-3a-((2-(1,1-dioxidothiomorpholino)ethyl)amino)-5a,5b,8,8,11a-pentamethyl-1-(prop-1-en-2-yl)-2,3,3a,4,5,5a,5b,6,7,7a,8,11,11a,11b,12,13,13a,13b-octadecahydro-1H-cyclopenta[a]chrysen-9-yl)benzoyl)oxy)-3,4,5-trihydroxytetrahydro-2H-pyran-2-carboxylic acid] | < 0.1 µM

Same assay, conditions: Renilla, NL43, luciferase activity in cells infected for 4-5 days with NLRluc recombinants, serial dilutions of inhibitor; class symbols (key in Table 1); read-out: EC50

Row | Structure (SMILES) | EC50
2 | C=C(C)[C@@H]1CC[C@]2(N(CCN3CCOCC3)CCN3CCOCC3)CC[C@]3(C)[C@H](CC[C@@H]4[C@@]5(C)CC=C(c6ccc(C(=O)O)cc6)C(C)(C)[C@@H]5CC[C@]43C)[C@@H]12 [Example 160, 4-((1R,3aS,5aR,5bR,7aR,11aS,11bR,13aR,13bR)-3a-(bis(2-morpholinoethyl)amino)-5a,5b,8,8,11a-pentamethyl-1-(prop-1-en-2-yl)-2,3,3a,4,5,5a,5b,6,7,7a,8,11,11a,11b,12,13,13a,13b-octadecahydro-1H-cyclopenta[a]chrysen-9-yl)benzoic acid] | < 0.1 µM
3 | C=C(C)[C@@H]1CC[C@]2(NC(=O)NC3(CN4CCCCC4)CC3)CC[C@]3(C)[C@H](CC[C@@H]4[C@@]5(C)CC=C(c6ccc(C(=O)O)cc6)C(C)(C)[C@@H]5CC[C@]43C)[C@@H]12 [Example 8, 4-((1R,3aS,5aR,5bR,7aR,11aS,11bR,13aR,13bR)-5a,5b,8,8,11a-pentamethyl-3a-(3-(1-(piperidin-1-ylmethyl)cyclopropyl)ureido)-1-(prop-1-en-2-yl)-2,3,3a,4,5,5a,5b,6,7,7a,8,11,11a,11b,12,13,13a,13b-octadecahydro-1H-cyclopenta[a]chrysen-9-yl)benzoic acid] | < 0.1 µM
4 | C=C(C)[C@@H]1CC[C@]2(NC(=O)C3(NC(=O)OC(C)(C)C)CC3)CC[C@]3(C)[C@H](CC[C@@H]4[C@@]5(C)CC=C(c6ccc(C(=O)O)cc6)C(C)(C)[C@@H]5CC[C@]43C)[C@@H]12 [Example 130-2, 4-((1R,3aS,5aR,5bR,7aR,11aS,11bR,13aR,13bR)-3a-(1-(tert-butoxycarbonylamino)cyclopropanecarboxamido)-5a,5b,8,8,11a-pentamethyl-1-(prop-1-en-2-yl)-2,3,3a,4,5,5a,5b,6,7,7a,8,11,11a,11b,12,13,13a,13b-octadecahydro-1H-cyclopenta[a]chrysen-9-yl)benzoic acid] | < 0.1 µM
5 | C=C(C)[C@@H]1CC[C@]2(NCC3CCCN(C(=O)OC(C)(C)C)C3)CC[C@]3(C)[C@H](CC[C@@H]4[C@@]5(C)CC=C(c6ccc(C(=O)O)cc6)C(C)(C)[C@@H]5CC[C@]43C)[C@@H]12 (stereo partly drawn) [Example 153, 4-((1R,3aS,5aR,5bR,7aR,11aS,11bR,13aR,13bR)-3a-((1-(tert-butoxycarbonyl)piperidin-3-yl)methylamino)-5a,5b,8,8,11a-pentamethyl-1-(prop-1-en-2-yl)-2,3,3a,4,5,5a,5b,6,7,7a,8,11,11a,11b,12,13,13a,13b-octadecahydro-1H-cyclopenta[a]chrysen-9-yl)benzoic acid] | > 0.1 µM
6 | C=C(C)[C@@H]1CC[C@]2(NCC3CC3C(=O)O)CC[C@]3(C)[C@H](CC[C@@H]4[C@@]5(C)CC=C(c6ccc(C(=O)O)cc6)C(C)(C)[C@@H]5CC[C@]43C)[C@@H]12 (stereo partly drawn) [Example 157, 4-((1R,3aS,5aR,5bR,7aR,11aS,11bR,13aR,13bR)-3a-((2-carboxycyclopropyl)methylamino)-5a,5b,8,8,11a-pentamethyl-1-(prop-1-en-2-yl)-2,3,3a,4,5,5a,5b,6,7,7a,8,11,11a,11b,12,13,13a,13b-octadecahydro-1H-cyclopenta[a]chrysen-9-yl)benzoic acid] | < 0.1 µM
7 | C=C(C)[C@@H]1CC[C@]2(NC(=O)N3CCNC(=O)C3CC(=O)O)CC[C@]3(C)[C@H](CC[C@@H]4[C@@]5(C)CC=C(c6ccc(C(=O)O)cc6)C(C)(C)[C@@H]5CC[C@]43C)[C@@H]12 (stereo partly drawn) [Example 56, 4-((1R,3aS,5aR,5bR,7aR,11aS,11bR,13aR,13bR)-3a-(2-(carboxymethyl)-3-oxopiperazine-1-carboxamido)-5a,5b,8,8,11a-pentamethyl-1-(prop-1-en-2-yl)-2,3,3a,4,5,5a,5b,6,7,7a,8,11,11a,11b,12,13,13a,13b-octadecahydro-1H-cyclopenta[a]chrysen-9-yl)benzoic acid] | < 0.1 µM
8 | C=C(C)[C@@H]1CC[C@]2(NC(=O)NCC(C)(C)N3CCOCC3)CC[C@]3(C)[C@H](CC[C@@H]4[C@@]5(C)CC=C(c6ccc(C(=O)O)cc6)C(C)(C)[C@@H]5CC[C@]43C)[C@@H]12 [Example 6, 4-((1R,3aS,5aR,5bR,7aR,11aS,11bR,13aR,13bR)-5a,5b,8,8,11a-pentamethyl-3a-(3-(2-methyl-2-morpholinopropyl)ureido)-1-(prop-1-en-2-yl)-2,3,3a,4,5,5a,5b,6,7,7a,8,11,11a,11b,12,13,13a,13b-octadecahydro-1H-cyclopenta[a]chrysen-9-yl)benzoic acid] | < 0.1 µM
9 | C=C(C)[C@@H]1CC[C@]2(NC(=O)N3CCCN(C(C)=O)CC3)CC[C@]3(C)[C@H](CC[C@@H]4[C@@]5(C)CC=C(c6ccc(C(=O)O)cc6)C(C)(C)[C@@H]5CC[C@]43C)[C@@H]12 [Example 35, 4-((1R,3aS,5aR,5bR,7aR,11aS,11bR,13aR,13bR)-3a-(4-acetyl-1,4-diazepane-1-carboxamido)-5a,5b,8,8,11a-pentamethyl-1-(prop-1-en-2-yl)-2,3,3a,4,5,5a,5b,6,7,7a,8,11,11a,11b,12,13,13a,13b-octadecahydro-1H-cyclopenta[a]chrysen-9-yl)benzoic acid] | < 0.1 µM
10 | C=C(C)[C@@H]1CC[C@]2(NC(=O)N3CCNCC(O)C3)CC[C@]3(C)[C@H](CC[C@@H]4[C@@]5(C)CC=C(c6ccc(C(=O)O)cc6)C(C)(C)[C@@H]5CC[C@]43C)[C@@H]12 (mixture of isomers) [Example 64, 4-((1R,3aS,5aR,5bR,7aR,11aS,11bR,13aR,13bR)-3a-(6-hydroxy-1,4-diazepane-1-carboxamido)-5a,5b,8,8,11a-pentamethyl-1-(prop-1-en-2-yl)-2,3,3a,4,5,5a,5b,6,7,7a,8,11,11a,11b,12,13,13a,13b-octadecahydro-1H-cyclopenta[a]chrysen-9-yl)benzoic acid] | < 0.1 µM
11 | C=C(C)[C@@H]1CC[C@]2(NCCN3CCCC3=O)CC[C@]3(C)[C@H](CC[C@@H]4[C@@]5(C)CC=C(c6ccc(C(=O)O)c(F)c6)C(C)(C)[C@@H]5CC[C@]43C)[C@@H]12 [Example A4, 2-fluoro-4-((1R,3aS,5aR,5bR,7aR,11aS,11bR,13aR,13bR)-5a,5b,8,8,11a-pentamethyl-3a-(2-(2-oxopyrrolidin-1-yl)ethylamino)-1-(prop-1-en-2-yl)-2,3,3a,4,5,5a,5b,6,7,7a,8,11,11a,11b,12,13,13a,13b-octadecahydro-1H-cyclopenta[a]chrysen-9-yl)benzoic acid] | < 0.1 µM
12 | C=C(C)[C@@H]1CC[C@]2(NC(=O)N3CCNC(=O)CC3)CC[C@]3(C)[C@H](CC[C@@H]4[C@@]5(C)CC=C(c6ccc(C(=O)O)cc6)C(C)(C)[C@@H]5CC[C@]43C)[C@@H]12 [Example 42, 4-((1R,3aS,5aR,5bR,7aR,11aS,11bR,13aR,13bR)-5a,5b,8,8,11a-pentamethyl-3a-(5-oxo-1,4-diazepane-1-carboxamido)-1-(prop-1-en-2-yl)-2,3,3a,4,5,5a,5b,6,7,7a,8,11,11a,11b,12,13,13a,13b-octadecahydro-1H-cyclopenta[a]chrysen-9-yl)benzoic acid] | < 0.1 µM

Same assay, conditions: Renilla, NL43, luciferase activity in cells infected for 4-5 days with NLRluc recombinants, serial dilutions of inhibitor; numeric values; read-out: EC50

Row | Structure (SMILES) | EC50
13 | C=C(C)[C@@H]1CC[C@]2(NC(=O)N[C@H](CO)C(=O)O)CC[C@]3(C)[C@H](CC[C@@H]4[C@@]5(C)CC=C(c6ccc(C(=O)O)cc6)C(C)(C)[C@@H]5CC[C@]43C)[C@@H]12 [Example 20, 4-((1R,3aS,5aR,5bR,7aR,11aS,11bR,13aR,13bR)-3a-(3-((R)-1-carboxy-2-hydroxyethyl)ureido)-5a,5b,8,8,11a-pentamethyl-1-(prop-1-en-2-yl)-2,3,3a,4,5,5a,5b,6,7,7a,8,11,11a,11b,12,13,13a,13b-octadecahydro-1H-cyclopenta[a]chrysen-9-yl)benzoic acid] | 0.4 µM
14 | C=C(C)[C@@H]1CC[C@]2(NCc3ccc(F)cn3)CC[C@]3(C)[C@H](CC[C@@H]4[C@@]5(C)CC=C(c6ccc(C(=O)O)cc6)C(C)(C)[C@@H]5CC[C@]43C)[C@@H]12 [Example 133, 4-((1R,3aS,5aR,5bR,7aR,11aS,11bR,13aR,13bR)-3a-((5-fluoropyridin-2-yl)methylamino)-5a,5b,8,8,11a-pentamethyl-1-(prop-1-en-2-yl)-2,3,3a,4,5,5a,5b,6,7,7a,8,11,11a,11b,12,13,13a,13b-octadecahydro-1H-cyclopenta[a]chrysen-9-yl)benzoic acid] | 0.03 µM
15 | C=C(C)[C@@H]1CC[C@]2(NCc3ncccc3C(F)(F)F)CC[C@]3(C)[C@H](CC[C@@H]4[C@@]5(C)CC=C(c6ccc(C(=O)O)cc6)C(C)(C)[C@@H]5CC[C@]43C)[C@@H]12 [Example 134, 4-((1R,3aS,5aR,5bR,7aR,11aS,11bR,13aR,13bR)-5a,5b,8,8,11a-pentamethyl-1-(prop-1-en-2-yl)-3a-((3-(trifluoromethyl)pyridin-2-yl)methylamino)-2,3,3a,4,5,5a,5b,6,7,7a,8,11,11a,11b,12,13,13a,13b-octadecahydro-1H-cyclopenta[a]chrysen-9-yl)benzoic acid] | 0.1 µM

Source: patent US20140343000A1 (priority 2011, published 2014)
